From patent publication US10221440B2, “Method for determining the sensitivity of microorganisms to antimicrobial substances” (priority 2012, dated 2019) come the findings set out here.

Test [1] deals with bacteria in secretion from the wound of a dog with a wound infection. Kind of test: Express determination of bacteria sensitivity, wound secretion of a dog. It is filed as cell-based. As to conditions: ampicillin 1 μg/ml in enriched Columbia Agar, 37° C., lawn in control after 4-6 hours. How it is done: Express determination of bacteria sensitivity to ampicillin while inoculating material obtained from an animal (a dog) with a wound infection.
The method was carried out similarly to the way described in example 1.
Material to be investigated: secretion from the wound.
Nutrient medium: Columbia Agar medium enriched with horse serum and sheep red blood cells, vitamins and amino acids. Ampicillin was added to the medium in maximum concentration achievable at the location where the material was taken—1 μg/ml.
Material taken from the wound was plated using a swab on the medium in a Petri dish. Same medium and cultivation conditions (without ampicillin) were used for control purposes.
The culture was incubated at temperature of 37° C.

In test [2] the test system is bacteria in urine of a patient suffering from cystitis. The class given is cell-based.
Test [3] concerns aerobes in secretion of subgingival space of a patient with a disease of periodontium. Briefly: Sensitivity to antibiotics and their mixture, subgingival secretion, aerobic conditions. The class given is cell-based, aerobic bacteria. To be noted: Columbia Agar, dishes 1-3, 37° C., whole observation period; lawn in control after 4 hours. From the text:
(§1) Express determination of sensitivity to a mixture of antibiotics, namely gentamicin (mainly affects aerobic bacteria) and metronidazole (active against anaerobic bacteria and microaerophils), while inoculating material obtained from a patient suffering from a disease of periodontium. Material to be investigated: freshly collected secretion of subgingival space. Nutrient medium: Columbia Agar medium enriched with sheep red blood cells and horse serum was used for cultivation in aerobic conditions. Anaerobic microorganisms were detected using Schaedler Agar containing sheep red blood cells and serum. […] were added to the medium: gentamicin (active against a wide range of aerobes) and metronidazole that selectively affects anaerobic bacteria. Medium in dishes 1 and 1a contains gentamicin; medium in dishes 2 and 2a contains metronidazole; medium in dishes 3 and 3a contains gentamicin and metronidazole; dishes 4 and 4a contain only the nutrient medium (control). The secretion of subgingival space was diluted fivefold using isotonic solution of sodium chloride and plated in the amount of 0.05 ml per dish using a spreader. […] The results were analyzed after 4, 8, 12, 20, 24 and 48 hours after the inoculation (anaerobic bacteria are characterized by lengthy growth).

Test [4] relates to anaerobes in secretion of subgingival space of a patient with a disease of periodontium. Kind of test: Sensitivity to antibiotics and their mixture, subgingival secretion, anaerobic conditions. The class given is cell-based, anaerobic bacteria. To be noted: Schaedler Agar, dishes 1a-3a, 37° C., after 8 hours.
Source text: as §1

Test [5] deals with fungi that cause diseases of plants (powdery mildew). Kind of test: Express determination of sensitivity of plant-disease fungi to antifungal preparations. To be noted: 30° C., nystatin 0.4 mg/l; for growth in the well with the antifungal preparation: Sabouraud Agar with gentamicin 0.01 mg/l, after 8 hours, propiconazole 1%. The class given is cell-based. How it is done:
Express determination of the sensitivity of fungi that cause diseases of plants (powdery mildew) to antifungal preparations.
Material to be investigated: wipe sampling of isotonic solution of sodium chloride taken from affected areas of a leaf of a plant that has indications of fungi growth.
Nutrient medium: Sabouraud Agar medium enriched with mineral components, placed into a plate with six wells. in order to prevent the growth of bacteria, gentamicin was added to the agar in the amount of 0.01 mg/l. The antifungal preparations to be investigated were also added to the medium: 1st well—propiconazole, in final concentration of 1%; 2nd well—nystatin (0.4 mg/l); 3rd well—control without any antifungal preparations.
1.0 ml of isotonic solution a sodium chloride was washed from […] of the affected area. The material was plated using an inoculation loop.
The inoculations were cultivated at 30° C. The results were analyzed after 6, 8, 12, 20, 24 and 48 hours after the inoculation.

Regarding `CC1(C)S[C@@H]2[C@H](NC(=O)[C@H](N)c3ccccc3)C(=O)N2[C@H]1C(=O)O` [ampicillin], the “bacterial growth in the dish with the antibiotic” value in test [1] is “No bacterial growth”.

For `CC[C@H]1OC(=O)[C@H](C)[C@@H](O[C@H]2C[C@@](C)(OC)[C@@H](O)[C@H](C)O2)[C@H](C)[C@@H](O[C@@H]2O[C@H](C)C[C@H](N(C)C)[C@H]2O)[C@](C)(O)C[C@@H](C)CN(C)[C@H](C)[C@@H](O)[C@]1(C)O` [azithromycin], the “growth of bacteria in the presence of the antibiotic” value in test [2] was “no growth”.

Turning to `Cc1ncc([N+](=O)[O-])n1CCO` [metronidazole], the “microbial growth in aerobic conditions” value in test [3] is recorded as “Microbial growth”. For the same compound, the “microbial growth in anaerobic conditions” value in test [4] is reported as “Microbial growth”.

With `C[C@@H]1[C@H](O)[C@@H](C)/C=C/C=C/CC/C=C/C=C/C=C/C=C/C(O[C@H]2O[C@H](C)[C@@H](O)[C@H](N)[C@@H]2O)CC2O[C@](O)(CC(O)C(O)CCC(O)CC(O)CC(O)CC(=O)O[C@H]1C)CC(O)C2C(=O)O` (stereo partly drawn) [nystatin], in test [5], the “growth in the well with the antifungal preparation” value is “growth was observed” and the “sensitivity of the mold to the preparation” value is reported as “resistant”.

As to `CCCC1COC(Cn2cncn2)(c2ccc(Cl)cc2Cl)O1` (stereo not drawn) [propiconazole], in test [5], the “growth in the well with the antifungal preparation” value is on record as “No growth”.

Consider gentamicin, for which the “microbial growth in aerobic conditions” value in test [3] was “Microbial growth”. In addition, the “microbial growth in anaerobic conditions” value in test [4] was “Microbial growth”.
